Common to all, as to assay type: cell-based, human
Experiment [1] relates to A549 adenocarcinoma alveolar epithelial cancer cells. As to the kind of experiment: Antiproliferative activity (NCI procedure, sulforhodamine B), A549. Particulars: Homo sapiens, A549; Table 7; unit inferred, tested 781 nM to 100 μM, 48 h. Here is the method:
(§1) The antiproliferative activity of compounds 3a-b, 4a-e, 5a-e and 6a-e was subsequently evaluated using the human HT-29 colon adenocarcinoma and the A549 adenocarcinoma alveolar epithelial cancer cell lines, the HaCaT spontaneously transformed aneuploid immortal keratinocyte cell line and the HDFn neonatal dermal fibroblast cell line (Table 2). Cell growth inhibition was assessed according to the NCI/NIH Developmental Therapeutics Program.
(§2) The antiproliferative activity assay of all compounds was assessed using the procedure recommended by the National Cancer Institute for its drug screening program with minor modifications. Briefly, 96-well microtiter plates were seeded with 75 μL of a suspension of either HaCaT (5×10^3), HT-29 (3.0×10^3), A549 (3.0×10^3) or HDFn (3×10^3) cells per well in DMEM and incubated for 24 h at 37° C. in a moisture-saturated atmosphere containing 5% CO2. Compounds freshly solubilized in DMSO (40 mM) were diluted in fresh DMEM, and 75 μL aliquots containing serially diluted concentrations of the compound were added. Final compound concentrations ranged from 100 μM to 781 nM. DMSO was maintained at a concentration of <0.5% (v/v) to avoid any related cytotoxicity. Plates were subsequently incubated for 48 h. Cell growth was then stopped by the addition of cold trichloroacetic acid to the wells (10% w/v, final concentration), followed by a 1 h incubation period at 4° C. The plates were washed 4-times with water. A sulforhodamine B solution (75 μL; 0.1% w/v) in acetic acid (1%) was subsequently added to each well and the plates incubated over a 15 min period while at room temperature. After staining, any unbound dye was removed by washing 4-times with an acetic acid solution (1%). Bound dye was solubilized in 20 mM Tris base and the absorbance was measured at an optimal wavelength (530-568 nm) using a μQuant® Universal microplate spectrophotometer (BioTek, Winooski, Vt.). The measurements for treated cells were compared with measurements from control cell plates fixed on treatment day and the percentage of cell growth inhibition was calculated for each drug. The experiments were performed at least twice in triplicate. The assays were considered valid when the coefficient of variation for a given set of conditions and within the same experiment was <10%.

In experiment [2] the test system is HT-29 colon adenocarcinoma cells. The experiment in a line: Antiproliferative activity (NCI procedure, sulforhodamine B), HT-29. Particulars: Homo sapiens, HT-29; Table 7; unit inferred, tested 781 nM to 100 μM, 48 h. Here is the method: as §1, §2
For experiment [3], the system named is HaCaT keratinocyte cell line. The experiment in a line: Antiproliferative activity (NCI procedure, sulforhodamine B), HaCaT. The following applies: Homo sapiens, HaCaT; Table 7; unit inferred, tested 781 nM to 100 μM, 48 h. Here is the method: as §1, §2
In experiment [4] the test system is HDFn neonatal dermal fibroblast cell line. The experiment in a line: Antiproliferative activity (NCI procedure, sulforhodamine B), HDFn. The following applies: Homo sapiens, Fibroblast; Table 7; unit inferred, tested 781 nM to 100 μM, 48 h. The procedure:
as §1, §2

For `O=c1c(Nc2cccc(I)c2)c(NC2CC2)c1=O` [Compound 73], the IC50 in experiment [1] amounted to 26.8 µM; in experiment [2], 39.8 µM; in experiment [3], 37.7 µM; in experiment [4], 19.6 µM.
`O=c1c(Nc2cccc(C3CCCCC3)c2)c(NC2CC2)c1=O` [Compound 79]: the IC50 in experiment [1] is 8 µM; in experiment [2], 7.9 µM; in experiment [3], 11 µM; in experiment [4] it was 4.3 µM.
In the same order, the values of `O=c1c(Nc2ccc(C3CCCCC3)cc2)c(NC2CC2)c1=O` [Compound 76] are 74 µM, more than 100 µM, more than 100 µM and more than 100 µM.
Take `O=c1c(NCC2CCC2)c(Nc2ccc(C3CCCCC3)cc2)c1=O` [Compound 77]: the half-maximal inhibitory concentration (IC50) in experiment [1] was 89.6 µM; in experiment [2], more than 100 µM; in experiment [3] it was more than 100 µM; in experiment [4] it was more than 100 µM.
Turning to `O=c1c(Nc2cccc(C3CCCCC3)c2)c(NC2CCCC2)c1=O` [Compound 81], the IC50 amounted to 3.7 µM in experiment [1], 4.3 µM in experiment [2], 5.6 µM in experiment [3] and 1.9 µM in experiment [4].
Regarding `CC(C)(C)c1ccc(Nc2c(NCC3CCC3)c(=O)c2=O)cc1` [Compound 83], the IC50 in experiment [1], in experiment [2], in experiment [3] and in experiment [4] was more than 100 µM in each case.
In the case of `CC(C)(C)c1ccc(Nc2c(NC3CCCC3)c(=O)c2=O)cc1` [Compound 84], the half-maximal inhibitory concentration (IC50) in experiment [1] was 15.1 µM; in experiment [2], more than 100 µM; in experiment [3] it was more than 100 µM; in experiment [4], more than 100 µM.
Regarding `O=c1c(Nc2ccc(I)cc2)c(NC2CC2)c1=O` [Compound 70], the IC50 in experiment [1], in experiment [2], in experiment [3] and in experiment [4] was more than 100 µM throughout.
Consider `O=c1c(Nc2cccc(I)c2)c(NC2CCCC2)c1=O` [Compound 75], for which the half-maximal inhibitory concentration (IC50) in experiment [1] stood at 9 µM; in experiment [2], 15.2 µM; in experiment [3], 11.8 µM; in experiment [4] it was 4.6 µM.
On to `O=c1c(NCC2CCC2)c(Nc2cccc(C3CCCCC3)c2)c1=O` [Compound 80], for which the IC50 stood at 4.2 µM in experiment [1], 4.5 µM in experiment [2], 6 µM in experiment [3] and 1.9 µM in experiment [4].
For the molecule `O=c1c(Nc2ccc(C3CCCCC3)cc2)c(NC2CCCC2)c1=O` [Compound 78], the concentration for half-maximal inhibition (IC50) is 96.1 µM in experiment [1], more than 100 µM in experiment [2], more than 100 µM in experiment [3] and more than 100 µM in experiment [4].
For `CC(C)(C)c1cccc(Nc2c(NC3CC3)c(=O)c2=O)c1` [Compound 85], the IC50 in experiment [1] worked out at 40.8 µM; in experiment [2], 64.1 µM; in experiment [3] it was 81.4 µM; in experiment [4] it was 57.3 µM.
Regarding `O=c1c(Nc2ccc(I)cc2)c(NC2CCCC2)c1=O` [Compound 72], the concentration for half-maximal inhibition (IC50) in experiment [1] came to 8 µM; in experiment [2] it was 10 µM; in experiment [3] it was 10.6 µM; in experiment [4], 6.9 µM.
In the same order, the values of `CC(C)(C)c1cccc(Nc2c(NC3CCCC3)c(=O)c2=O)c1` [Compound 87] are 4 µM, 4.3 µM, 5.5 µM and 2.8 µM.
Regarding `CC(C)(C)c1ccc(Nc2c(NC3CC3)c(=O)c2=O)cc1` [Compound 82], the half-inhibitory concentration (IC50) in experiment [1] was 17.9 µM; in experiment [2], 18.7 µM; in experiment [3] it was 47.9 µM; in experiment [4], 13.2 µM.
In the case of `O=c1c(NCC2CCC2)c(Nc2ccc(I)cc2)c1=O` [Compound 71], the IC50 in experiment [1], in experiment [2], in experiment [3] and in experiment [4] was more than 100 µM each time.
Consider `CC(C)(C)c1cccc(Nc2c(NCC3CCC3)c(=O)c2=O)c1` [Compound 86], for which the 50% inhibitory concentration (IC50) was determined as 13.7 µM in experiment [1], 14.8 µM in experiment [2], 56.1 µM in experiment [3] and 3.8 µM in experiment [4].
